Assay results published in patent US12503439B2, “Heteroaryl compounds for the treatment of pain” (VERTEX PHARMACEUTICALS INCORPORATED, priority 2022, dated 2025).

What follows are molecules tested against truncated form of human NaV 1.8 with full channel activity (expressed in HEK cells) (Homo sapiens, UniProt Q9Y5Y9) (assay: E-VIPR assay detecting and measuring NaV inhibition properties (electrical stimulation, membrane potential FRET dyes)). Conditions: HEK cells expressing truncated human NaV 1.8, KIR2.1 BacMam; 11-point dose response; 30 min compound incubation; stimulation 10 Hz for 10 s; read-out: measured IC50 value in the E-VIPR Assay.
Sequence of truncated form of human NaV 1.8 with full channel activity (expressed in HEK cells) (Q9Y5Y9 126-1722 limits assumed): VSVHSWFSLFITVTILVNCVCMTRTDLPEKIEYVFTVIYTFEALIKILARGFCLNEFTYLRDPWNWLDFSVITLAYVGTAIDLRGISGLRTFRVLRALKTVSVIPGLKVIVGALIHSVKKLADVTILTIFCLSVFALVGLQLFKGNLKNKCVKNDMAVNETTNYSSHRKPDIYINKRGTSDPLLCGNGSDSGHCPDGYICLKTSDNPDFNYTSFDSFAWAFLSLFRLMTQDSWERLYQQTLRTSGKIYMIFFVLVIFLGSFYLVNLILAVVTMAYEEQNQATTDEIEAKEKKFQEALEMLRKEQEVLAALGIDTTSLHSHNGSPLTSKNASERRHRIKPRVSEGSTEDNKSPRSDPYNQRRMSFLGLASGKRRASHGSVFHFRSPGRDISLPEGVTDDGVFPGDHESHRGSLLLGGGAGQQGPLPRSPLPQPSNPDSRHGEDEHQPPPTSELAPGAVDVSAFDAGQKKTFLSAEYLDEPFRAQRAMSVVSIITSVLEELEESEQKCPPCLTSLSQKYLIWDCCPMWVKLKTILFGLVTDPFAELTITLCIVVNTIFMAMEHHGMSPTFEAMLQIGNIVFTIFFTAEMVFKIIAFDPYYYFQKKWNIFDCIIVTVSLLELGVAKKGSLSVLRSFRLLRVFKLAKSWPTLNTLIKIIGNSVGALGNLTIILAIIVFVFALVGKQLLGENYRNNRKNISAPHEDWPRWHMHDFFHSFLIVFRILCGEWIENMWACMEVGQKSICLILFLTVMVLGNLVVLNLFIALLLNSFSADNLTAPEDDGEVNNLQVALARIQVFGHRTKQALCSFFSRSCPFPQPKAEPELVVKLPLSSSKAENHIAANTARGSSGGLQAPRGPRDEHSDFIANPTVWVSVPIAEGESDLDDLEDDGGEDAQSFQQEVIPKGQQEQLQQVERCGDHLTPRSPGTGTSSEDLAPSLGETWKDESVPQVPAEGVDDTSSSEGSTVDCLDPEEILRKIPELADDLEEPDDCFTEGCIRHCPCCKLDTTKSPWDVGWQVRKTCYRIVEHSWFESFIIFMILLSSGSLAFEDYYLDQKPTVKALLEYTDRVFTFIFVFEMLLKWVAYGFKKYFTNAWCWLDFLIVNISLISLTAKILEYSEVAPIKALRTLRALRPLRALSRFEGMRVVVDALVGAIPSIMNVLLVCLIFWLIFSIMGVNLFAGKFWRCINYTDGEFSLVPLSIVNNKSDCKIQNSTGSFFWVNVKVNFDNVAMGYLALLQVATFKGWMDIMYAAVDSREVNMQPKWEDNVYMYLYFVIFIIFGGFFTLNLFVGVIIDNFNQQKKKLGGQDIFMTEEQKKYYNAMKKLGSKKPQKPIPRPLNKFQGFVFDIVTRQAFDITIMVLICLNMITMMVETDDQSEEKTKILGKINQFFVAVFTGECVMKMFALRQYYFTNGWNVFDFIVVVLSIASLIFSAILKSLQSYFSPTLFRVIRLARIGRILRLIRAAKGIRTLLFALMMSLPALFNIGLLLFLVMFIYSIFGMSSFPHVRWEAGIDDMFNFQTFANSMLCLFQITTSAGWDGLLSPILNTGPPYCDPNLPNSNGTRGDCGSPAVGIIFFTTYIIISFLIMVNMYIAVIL
Format: cell-based
Excerpt: E-VIPR Assay Detecting and Measuring NaV Inhibition Properties
Sodium ion channels are voltage-dependent proteins that can be activated by inducing membrane voltage changes by applying electric fields. […] The instrument comprises a microtiter plate handler, an optical system for exciting the coumarin dye while simultaneously recording the coumarin and oxonol emissions, a waveform generator, a current- or voltage-controlled amplifier, and parallel electrode pairs that are inserted into assay plate wells. Under integrated computer control, this instrument passes user-programmed electrical stimulus protocols to cells within the wells of the microtiter plate.
16-20 hours prior to running the assay on E-VIPR, HEK cells expressing a truncated form of human NaV 1.8 with full channel activity were seeded into microtiter 384-well plates, pre-coated with matrigel, at a density of 25,000 cells per well. 2.5-5% KIR2.1 BacMam virus was added to the final cell suspension before seeding into cell plates. […] Cells were expanded in 5-layer CellSTACK culture chambers or cell culture flasks with vented caps, with 90-95% humidity and 5% CO2.
Reagents and Stock Solutions:
The concentration used can be dependent on viral titer of each batch.
Human Serum (HS, Millipore #S1P1-01KL, or Sigma SLBR5469V and SLBR5470V as a 50%/50% mixture, for 25% assay final concentration)
Hexyl Dye Solution (2× Concentration):
Bath 1 Buffer containing 0.5% β-cyclodextrin (made fresh prior to each use, Sigma #C4767), 8 μM CC2-DMPE and 2 μM DiSBAC6(3). The solution was made by adding 10% Pluronic F127 stock equal to combined volumes of CC2-DMPE and DiSBAC6(3). The order of preparation was first mix Pluronic and CC2-DMPE, then add DiSBAC6(3), then while vortexing add Bath 1/β-Cyclodextrin.
Assay Protocol (7 Key Steps):
The compound plate was backfilled with 45 μL per well of Compound Loading Buffer resulting in a 240-fold dilution of compound following a 1:1 transfer of compound into the cell plate (see Step 6). […] This assay dilution protocol was adjusted to enable a higher dose range to be tested in the presence of HS or if the final assay volume was altered. • 2) Hexyl Dye Solution was prepared. • 3) Cell plates were prepared. On the day of the assay, the media was aspirated, and the cells were washed three times with 80 μL of Bath-1 buffer, maintaining 25 μL residual volume in each well. • 4) 25 μL per well of Hexyl Dye Solution was dispensed into the cell plates. The cells were incubated for 20 minutes at room temperature or ambient conditions in darkness. • 5) 45 μL per well of Compound Loading Buffer was dispensed into compound plates. • 6) The cell plates were washed three times with 80 μL per well of Bath-1 Buffer, leaving […] of residual volume. Then 25 μL per well from compound plate was transferred to each cell plate. The mixture was incubated for 30 minutes at room temperature/ambient conditions. • 7) The cell plate containing compound was read on E-VIPR using the current-controlled amplifier to deliver stimulation wave pulses using a symmetrical biphasic waveform. […] A pre-stimulus recording was performed for each well for 0.5 seconds to obtain the un-stimulated intensities baseline. The stimulatory waveform was followed by 0.5 seconds of post-stimulation recording to examine the relaxation to the resting state. All E-VIPR responses were measured at 200 Hz acquisition rate. Data Analysis:
The response as a function of time was reported as the ratios obtained using the following formula: […]
The data were normalized by calculating the initial (Ri) and final (Rf) ratios. These were the average ratio values during part or all of the pre-stimulation period and during sample points during the stimulation period. The fluorescence ratio (Rf/Ri) was then calculated and reported as a function of time.
Control responses were obtained by performing assays in the presence of the positive control, and in the absence of pharmacological agents (DMSO vehicle negative control).
In the case of `O=c1[nH]c(-c2nc(C(F)(F)F)ccc2N2CCCC(F)(F)CC2)nc2ccccc12` [Compound 153, 2-[3-(4,4-difluoroazepan-1-yl)-6-(trifluoromethyl)-2-pyridyl]-3H-quinazolin-4-one], the IC50 is reported as ≥ 5000 nM.
With `O=c1cc(-c2ccccc2OCc2ccc(F)cc2)[nH]c2ccccc12` [Compound 6, 2-[2-[(4-fluorophenyl)methoxy]phenyl]-1H-quinolin-4-one] the IC50 was 2000 to 5000 nM.
For `O=c1cc(-c2ccccc2OCC2CC2)[nH]c2ccccc12` [Compound 2, 2-[2-(cyclopropylmethoxy)phenyl]-1H-quinolin-4-one], the IC50 was ≥ 5000 nM.
`Cc1cc(-c2cc(=O)c3c(C)nccc3[nH]2)c(N2CCCC(F)(F)CC2)nc1C(F)(F)F` [Compound 193, 2-[2-(4,4-difluoroazepan-1-yl)-5-methyl-6-(trifluoromethyl)-3-pyridyl]-5-methyl-1H-1,6-naphthyridin-4-one] was tested, and the IC50 was ≥ 5000 nM.
`Cc1c(Oc2ncc(C(F)(F)F)c(C)c2-c2cc(=O)c3c(N4Cc5cn[nH]c5C4)nccc3[nH]2)ccc(F)c1F` [Compound 175, 2-[2-(3,4-difluoro-2-methyl-phenoxy)-4-methyl-5-(trifluoromethyl)-3-pyridyl]-5-(4,6-dihydro-1H-pyrrolo[3,4-c]pyrazol-5-yl)-1H-1,6-naphthyridin-4-one] showed an IC50 of 500 to 2000 nM.
Molecule `Cc1c(Oc2ncc(C(F)(F)F)c(C)c2-c2cc(=O)c3c(NC(C)(C)CO)nccc3[nH]2)ccc(F)c1F` [Compound 170, 2-[2-(3,4-difluoro-2-methyl-phenoxy)-4-methyl-5-(trifluoromethyl)-3-pyridyl]-5-[(2-hydroxy-1,1-dimethyl-ethyl)amino]-1H-1,6-naphthyridin-4-one] has an IC50 of 500 to 2000 nM.
`CC(C)(C)n1cc(-c2cc(=O)c3c(C(N)=O)nccc3[nH]2)c(C2CCC(F)(F)CC2)n1` [Compound 138, 2-[1-tert-butyl-3-(4,4-difluorocyclohexyl)pyrazol-4-yl]-4-oxo-1H-1,6-naphthyridine-5-carboxamide] was tested, and the IC50 was 500 to 2000 nM.
In the case of `COc1cc(F)ccc1Oc1cc(C(C)(C)C)cc(C)c1-c1nc2cccc(F)c2c(=O)[nH]1` [Compound 38, 2-[4-tert-butyl-2-(4-fluoro-2-methoxy-phenoxy)-6-methyl-phenyl]-5-fluoro-3H-quinazolin-4-one], the IC50 is reported as 500 to 2000 nM.
Work on `O=c1cc(-c2ccccc2OCc2cccc(F)c2)[nH]c2ccccc12` [Compound 4, 2-[2-[(3-fluorophenyl)methoxy]phenyl]-1H-quinolin-4-one] yielded an IC50 of 500 to 2000 nM.
Work on `COC1CCC(c2cc(C(C)(C)C)ncc2-c2cc(=O)c3c(C(N)=O)nccc3[nH]2)CC1` (stereo not drawn) [Compound 133, 2-[6-tert-butyl-4-(4-methoxycyclohexyl)-3-pyridyl]-4-oxo-1H-1,6-naphthyridine-5-carboxamide] yielded an IC50 of 500 to 2000 nM.
With `CCN(c1nc2ccccc2cc1-c1cc(=O)c2c(C(N)=O)nccc2[nH]1)C1CCC1` [Compound 303, 2-[2-[cyclobutyl(ethyl)amino]-3-quinolyl]-4-oxo-1H-1,6-naphthyridine-5-carboxamide] the IC50 was ≥ 5000 nM.
With `COc1cc(F)ccc1Oc1cc(C(C)(C)C)cc(C)c1-c1nc(=O)c2ccccc2[nH]1` [Compound 28, 2-[4-tert-butyl-2-(4-fluoro-2-methoxy-phenoxy)-6-methyl-phenyl]-1H-quinazolin-4-one] the IC50 was 500 to 2000 nM.
Work on `COc1cc(F)ccc1Oc1cc(C(C)(C)C)cc(C)c1-c1cc(=O)c2cccc(C)c2[nH]1` [Compound 32, 2-[4-tert-butyl-2-(4-fluoro-2-methoxy-phenoxy)-6-methyl-phenyl]-8-methyl-1H-quinolin-4-one] yielded an IC50 of 500 to 2000 nM.
For `COc1cc(F)ccc1Oc1cc(C(C)(C)C)cc(C)c1-c1cc(=O)n2ccccc2n1` [Compound 37, 2-[4-tert-butyl-2-(4-fluoro-2-methoxy-phenoxy)-6-methyl-phenyl]pyrido[1,2-a]pyrimidin-4-one], the IC50 was ≥ 5000 nM.
For `NC(=O)c1nccc2[nH]c(-c3cc4ccccc4nc3N3CCC(F)(F)C3)cc(=O)c12` [Compound 281, 2-[2-(3,3-difluoropyrrolidin-1-yl)-3-quinolyl]-4-oxo-1H-1,6-naphthyridine-5-carboxamide], the IC50 was 500 to 2000 nM.
In the case of `O=c1cc(-c2cc(C(F)(F)F)ncc2[C@H]2CC[C@H](C(F)(F)F)CC2)[nH]c2ccncc12` [Compound 305, 2-[2-(trifluoromethyl)-5-[4-(trifluoromethyl)cyclohexyl]-4-pyridyl]-1H-1,6-naphthyridin-4-one], the IC50 is reported as ≥ 5000 nM.
`Cc1c(C(F)(F)F)cnc(Oc2ccc(F)c(F)c2CO)c1-c1cc(=O)c2c(C(N)=O)nccc2[nH]1` [Compound 346, 2-[2-[3,4-difluoro-2-(hydroxymethyl)phenoxy]-4-methyl-5-(trifluoromethyl)-3-pyridyl]-4-oxo-1H-1,6-naphthyridine-5-carboxamide] showed an IC50 of 500 to 2000 nM.
`O=c1cc(-c2ccccc2OCc2ccccc2)[nH]c2ccccc12` [Compound 3, 2-(2-benzyloxyphenyl)-1H-quinolin-4-one] was tested, and the IC50 was 500 to 2000 nM.
Molecule `COc1cc(F)ccc1Oc1cc(C(C)(C)C)cc(C)c1-c1[nH]c2ccccc2c(=O)c1C` (single isomer, unassigned) [Compound 334, 2-[4-tert-butyl-2-(4-fluoro-2-methoxy-phenoxy)-6-methyl-phenyl]-3-methyl-1H-quinolin-4-one] has an IC50 of 2000 to 5000 nM.
`Cc1c(Oc2ncc(C(F)(F)F)c(C)c2-c2cc(=O)c3c(N4CC(O)C4)nccc3[nH]2)ccc(F)c1F` [Compound 179, 2-[2-(3,4-difluoro-2-methyl-phenoxy)-4-methyl-5-(trifluoromethyl)-3-pyridyl]-5-(3-hydroxyazetidin-1-yl)-1H-1,6-naphthyridin-4-one] was tested, and the IC50 was 500 to 2000 nM.
Molecule `O=c1cc(-c2cc(Cl)c(C(F)(F)F)nc2N2CCCC(F)(F)CC2)[nH]c2c(F)cccc12` [Compound 95, 2-[5-chloro-2-(4,4-difluoroazepan-1-yl)-6-(trifluoromethyl)-3-pyridyl]-8-fluoro-1H-quinolin-4-one] has an IC50 of 500 to 2000 nM.
With `O=c1cc(-c2ccccc2C2CC2)[nH]c2ccccc12` [Compound 1, 2-(2-cyclopropylphenyl)-1H-quinolin-4-one] the IC50 was ≥ 5000 nM.
Work on `COc1cc(F)ccc1Oc1cc(C(C)(C)C)cc(C)c1-c1[nH]c2ccccc2c(=O)c1Cl` (single isomer, unassigned) [Compound 312, 2-[4-tert-butyl-2-(4-fluoro-2-methoxy-phenoxy)-6-methyl-phenyl]-3-chloro-1H-quinolin-4-one] yielded an IC50 of 500 to 2000 nM.
`NC(=O)c1nccc2[nH]c(-c3cc(F)c(C(F)(F)F)cc3Oc3ccc(F)c(F)c3O)cc(=O)c12` [Compound 347, 2-[2-(3,4-difluoro-2-hydroxy-phenoxy)-5-fluoro-4-(trifluoromethyl)phenyl]-4-oxo-1H-1,6-naphthyridine-5-carboxamide] gave an IC50 of 500 to 2000 nM.
For `N#Cc1nccc2[nH]c(-c3cc4ccccc4nc3N3CCC(F)(F)C3)cc(=O)c12` [Compound 282, 2-[2-(3,3-difluoropyrrolidin-1-yl)-3-quinolyl]-4-oxo-1H-1,6-naphthyridine-5-carbonitrile], the IC50 was 500 to 2000 nM.
`C=C(C)c1c(-c2c(C)cc(C(C)(C)C)cc2Oc2ccc(F)cc2OC)[nH]c2ccccc2c1=O` (single isomer, unassigned) [Compound 331, 2-[4-tert-butyl-2-(4-fluoro-2-methoxy-phenoxy)-6-methyl-phenyl]-3-isopropenyl-1H-quinolin-4-one] showed an IC50 of 500 to 2000 nM.
Molecule `COc1cc(F)ccc1Oc1cc(C(C)(C)C)cc(C)c1-c1[nH]c2ccccc2c(=O)c1Br` (single isomer, unassigned) [Compound 320, 3-bromo-2-[4-tert-butyl-2-(4-fluoro-2-methoxy-phenoxy)-6-methyl-phenyl]-1H-quinolin-4-one] has an IC50 of 500 to 2000 nM.
